Laboratory results: patent publication US8476305B2, “Therapeutic agent or prophylactic agent for inflammatory bowel disease comprising amino alcohol derivative as active ingredient” (Kyorin Pharmaceutical Co., Ltd., priority 2008, dated 2013)

System: SCID CD4+ CD45RBhigh T cell transfer colitis model
Assay: SCID CD4+ CD45RBhigh T cell transfer colitis model
Assay type: in vivo, SCID mice
Conditions: for Total number of leukocytes (cells/μL): blood on the day after final administration; for Total number of leukocytes (cells/μL) / Change ratio of body weight (%) On the fourth week / Change ratio of body weight (%) On the third week: mean ± standard error
Excerpt: SCID CD4^+ CD45RB^high T cell transfer colitis model has been reported as a model resembling to Crohn's disease due to its histopathological characteristics and the produced cytokines (Powrie F et al, Immunity, 1, 553-562, 1994). In addition, this model has also been used for evaluation of a medicine which is used in the treatment of inflammatory bowel disease and its effectiveness has been reported (Liu Z et al., J. Autoimmunl., 29, 187-194, 2007).
C.B-17/Icr-scid/scid Jcl (SCID mice) (female, 8 weeks of age, mouse to be transferred) and BALB/c Cr Slc (BALB/c mice) (female, 8 weeks of age, mouse for transfer cell preparation) were obtained and used in the test. CD4^+ CD45RB^high T cells (naive T cells) prepared from the spleen of BALB/c mice were transferred intraperitoneally into the SCID mice at a concentration of 3×10^5 cells/body, and then colitis was induced by breeding it for 4 weeks. Preparation of the CD4^+ CD45RB^high T cells was carried out in accordance with the method of Uraushihara et al. (J. Immunol., 171, 708-716, 2003) and FACSAriaCell Sorter (Becton Dickinson Japan) was used as a cell separator.
The compound produced in Example 27 (compound 27) was dissolved in distilled water and orally administered at doses of 0.3 mg/kg, 1 mg/kg and 3 mg/kg, once a day for 4 weeks starting on the preceding day of cell transfer. Distilled water alone was administered to the vehicle group. Body weight was determined every day during the administration period. The change ratio (%) of the body weight on the determination day was calculated based on the body weight on the day of the start of administration. On the next day of final administration, blood was collected and the large intestine was extracted. The total number of leukocytes was measured using the collected blood. After fixing the extracted large intestine with formalin, tissue sections were prepared and hematoxylin-eosin staining was carried out. Evaluation was performed in accordance with the scoring system (Uraushihara K et al., J. Immunol., 171, 708-716, 2003). That is, the large intestine was roughly divided into 3 regions (proximal region, middle region and distal region), and scoring was carried out on the 3 layers, which are mucosa, submucosa and muscularis, of each region. By totaling the obtained scores of each region, the value having the highest total score among the three regions was used as the score of the individual. The change ratio of the body weight and the total number of leukocytes were shown by mean±standard error and the pathological score was shown by median.

[1] = 0.3 mg/kg orally once a day for 4 weeks
[2] = 1 mg/kg orally once a day for 4 weeks
[3] = 3 mg/kg orally once a day for 4 weeks
[4] = in comparison with the vehicle group, result in words

**Q.** C[C@](N)(CO)CCCc1ccc(Sc2cccc(C(F)(F)F)c2)cc1Cl.Cl [Compound 27, (R)-2-amino-5-[2-chloro-4-(3-trifluoromethylphenylthio)phenyl]-2-methylpentan-1-ol hydrochloride] was tested. Which “Total number of leukocytes (cells/μL)” value [1] did it give?
**A.** 2733 ± 561 cells/μL

**Q.** And the “Change ratio of body weight (%) On the fourth week” value [1]?
**A.** −1.0 ± 2.2%

**Q.** And the Pathological score (0.3 mg/kg orally once a day for 4 weeks, large intestine histology, median)?
**A.** 5

**Q.** What about the “Change ratio of body weight (%) On the third week” value [1] of the same compound?
**A.** 1.1 ± 1.4 %

**Q.** What about the “Total number of leukocytes (cells/μL)” value [2] of the same compound?
**A.** 1980 ± 241 cells/μL

**Q.** And the “Change ratio of body weight (%) On the fourth week” value [2]?
**A.** −1.4 ± 2.0%

**Q.** And the Pathological score (1 mg/kg orally once a day for 4 weeks, large intestine histology, median)?
**A.** 5

**Q.** What about the “Change ratio of body weight (%) On the third week” value [2] of the same compound?
**A.** 1.5 ± 0.8 %

**Q.** And the “Total number of leukocytes (cells/μL)” value [3]?
**A.** 1720 ± 327 cells/μL

**Q.** What about the “Change ratio of body weight (%) On the fourth week” value [3] of the same compound?
**A.** −0.8 ± 2.0 %

**Q.** What about the Pathological score (3 mg/kg orally once a day for 4 weeks, large intestine histology, median) of the same compound?
**A.** 3.5

**Q.** And the “Change ratio of body weight (%) On the third week” value [3]?
**A.** 0.5 ± 1.2 %

**Q.** And the body weight loss [4]?
**A.** significantly suppressed

**Q.** And the “total number of leukocytes” value [4]?
**A.** significantly suppressed

**Q.** And the “effect on the SCID CD4+ CD45RBhigh T cell transfer colitis model” value (overall conclusion in words)?
**A.** shows the suppressive effect

**Q.** What about the Pathological score (result in words) of the same compound?
**A.** suppressive effect was found
